A short description of data set [1]: Pharmacokinetics of vaginal pullulan capsules with 12 mg CDB-4124 in women with uterine fibroids, compared with oral doses. It counts as in vivo, human. As to the method:
(§1) Capsugel NPcaps® were filled with the excipient fill formulations described above with 12 mg CDB-4124 (telapristone acetate) and administered vaginally to human females with uterine fibroids once per day for a period of 2 weeks to determine the length of time required to reach steady state and overall systemic exposure of the parent compound (CDB-4124) and the primary metabolite (CDB-4453). The capsules were administered using a commercially available vaginal applicator modified by reversing the insert (see FIG. 5). The unmodified applicator comprises a barrel and plunger with the barrel having a relatively wide opening on one end and a relatively narrow opening on the other end. The applicator is designed such that the drug is placed in the end with the larger diameter opening (entrance end), the applicator is inserted into the vagina and the plunger is used to push the drug out the barrel and into the vagina. For insertion of the filled NPcaps, the shell end of the capsule (having a […] diameter) was placed into the narrow opening in the barrel, leaving the cap exposed. […] Pharmacokinetic data was then obtained from patients.

The subject of data set [2] is human females with uterine fibroids. As to the kind of experiment: Efficacy of vaginal 12 mg CDB-4124 in women with uterine fibroids (menses, PBAC, UFSQOL). It is filed as in vivo. As to the method:
as §1
In a previous oral study, doses of 1, 3, 6, 9 and 12 mg of CDB-4124 were administered for a period of 10 weeks. […] Cessation of menses directly correlates to efficacy of an oral dose in both uterine fibroids and endometriosis. […] Given the overall low exposure of the 12 mg dose, in those women that continued to menstruate, further improvements in reduction of symptoms are expected with longer exposure to the drug. In efficacy studies in which CDB-4124 was administered orally, women experienced a nearly 50% reduction in mean fibroid size at a 25 mg dose. When those women were then escalated to a 50 mg oral dose for an additional four months, fibroid size was reduced to approximately 25% of the initial volume. […] It is expected that vaginal delivery of CDB-4124 at the 12 mg dose will have greater activity than the oral 50 mg dose despite a maximum exposure 1/100th of the 50 mg oral dose. […]

Another data set has as its system uterine fibroids. The data set can be described thus: Previous oral studies of CDB-4124 (menses, fibroid size, symptoms). It is filed as in vivo, human. The method, then: In a previous oral study, doses of 1, 3, 6, 9 and 12 mg of CDB-4124 were administered for a period of 10 weeks. […] Cessation of menses directly correlates to efficacy of an oral dose in both uterine fibroids and endometriosis. […] Given the overall low exposure of the 12 mg dose, in those women that continued to menstruate, further improvements in reduction of symptoms are expected with longer exposure to the drug. In efficacy studies in which CDB-4124 was administered orally, women experienced a nearly 50% reduction in mean fibroid size at a 25 mg dose. When those women were then escalated to a 50 mg oral dose for an additional four months, fibroid size was reduced to approximately 25% of the initial volume. […] It is expected that vaginal delivery of CDB-4124 at the 12 mg dose will have greater activity than the oral 50 mg dose despite a maximum exposure 1/100th of the 50 mg oral dose. Even with this low exposure after only 4 weeks of treatment, significant improvements in fibroid related condition have been observed.

A further data set relates to vaginal mucous membrane. As to the kind of experiment: Cumulative vaginal mucous membrane irritancy in rabbits. It is filed as in vivo, New Zealand White rabbits. To be noted: rabbit. The method, then:
Pullulan capsules (Capsugel NPcaps®, size 0) comprising CDB-4124 were administered once daily for 10 consecutive days intravaginally to 10 healthy virgin female New Zealand White rabbits in order to determine the cumulative vaginal mucous membrane irritancy potential and to obtain plasma samples for pharmacokinetic analysis. Five rabbits were assigned to each of two groups, the first dosed with vehicle control (pullulan capsules with 0.5 ml PEG 1000 fill) introduced into the upper vaginal vault of each rabbit using a syringe applicator (Group 1), the second with CDB-4124 (pullulan capsules with 12 mg CDB-4124 in 0.5 ml PEG 1000) (Group 2). The external vaginal mucosa of each animal was examined for erythema, edema and discharge prior to the initial dose, immediately prior to each treatment and prior to sacrifice. All animals were examined for gross pathology.

Setting [3] is: 12 mg vaginal, pair-wise comparison of 6 women.
Where [4] appears, read: 12 mg CDB-4124 vaginally daily for 10 days.

For the compound `COCC(=O)[C@@]1(OC(C)=O)CC[C@H]2[C@@H]3CCC4=CC(=O)CCC4=C3[C@@H](c3ccc(N(C)C)cc3)C[C@@]21C` [CDB-4124, 21-methoxy-17α-acetoxy-11β-(4 N,N-dimethylaminophenyl)-19-norpregna-4,9-diene-3,20-dione], in data set [1] (12 mg vaginal dose), the “maximum exposure relative to the 50 mg oral dose” value is on record as 1/100. Also, the “Cmax compared with oral doses” value in data set [1] (12 mg vaginal versus 1, 3, 6, 9, 12 mg oral, FIG. 2) was “lower than any of the oral doses”. In data set [1] (women with uterine fibroids, 12 mg vaginal pullulan capsule once per day), the “time to steady state concentration” value was “within one week”. Also, in data set [1] (women with uterine fibroids, 12 mg vaginal versus oral, FIG. 1), the “systemic exposure (AUC) relative to an equivalent oral dose” value is “about ⅙”. Besides, the “cessation of menses (number of women)” value in data set [2] (12 mg vaginal dose, 6 women compared) was found to be 3. In data set [2] (setting [3]), the “statistical significance (p) of reduction in menstrual bleeding, Pictorial Blood Loss Assessment Chart (PBAC)” value was under 0.05 and the “statistical significance (p) of reduction in overall uterine fibroid symptoms, UFSQOL” value is reported as under 0.05. The “fibroid size as % of the initial volume” value in the data set on uterine fibroids (escalated to 50 mg oral for an additional four months) is listed as “approximately 25%”. Further, the “efficacy of 1 mg oral dose” value in the data set on uterine fibroids (oral 1 mg) is reported as “ineffective”. The “reduction in mean fibroid size” value in the data set with uterine fibroids (oral 25 mg dose) is reported as about 50%. Further, in the data set with uterine fibroids (oral 1, 3, 6, 9 and 12 mg for 10 weeks), the tolerability entry is reported as “all doses were well tolerated”. In the data set with uterine fibroids (oral CDB-4124), the “fibroid symptoms scored by UFSQOL” value is given as “in general, symptom free”. In the data set with uterine fibroids (oral, 10 weeks), the “lowest dose inducing reliable cessation of menses” value is recorded as 3 mg. In the data set with vaginal mucous membrane (setting [4]), the “gross findings in ovaries, uterus, vagina” value is listed as “No gross findings” and the histopathological findings result was “nor were any histopathological findings observed”. Besides, the “external vaginal mucosa (erythema, edema)” value in the data set with vaginal mucous membrane (12 mg CDB-4124 vaginally daily for 10 days, 2/5 rabbits on 4 occasions, otherwise normal) is reported as “very slight erythema and/or edema”. For the same compound, the irritation index entry in the data set with vaginal mucous membrane (pullulan capsules, 12 mg CDB-4124 in 0.5 ml PEG 1000, vaginally daily for 10 days) was “none”.
